The values below come from patent US20140100290A1, “Method of treating a prostate condition” (priority 2012, published 2014).

For assay [1], the system named is cytochrome c release in LNCaP cells. Briefly: Western blot analysis of cytochrome c release in LNCaP cells. Conditions: 10 μM and 1000 μM, 48 h. The class given is cell-based, Human. The method, then:
Human metastatic prostate cancer cells, LNCaP, were obtained from ATCC (Manassas, Va., USA). Cells were grown in RPMI-1640 medium supplemented with 2mM glutamine, 10% FBS, 100 U/mL penicillin, and 100 μg/mL streptomycin. LNCaP cells were maintained in a humidified atmosphere of 5% CO2 at 37° C. in T-75 flasks and were subcultured when confluent. Experiments were conducted using cells with passage numbers ranging from 5-20.
Western blotting is a widely used analytical technique for detection of specific proteins separated from one another, according to their size, by gel electrophoresis. Application of an electric current induces proteins on the gel to move on to the membrane (nitrocellulose or PVDF) placed next to it. Proteins on the gel get transferred on to the membrane which is subsequently stained with the antibody. Once detected, the target protein will be visualized as a band on a blotting membrane, X-ray film, or an imaging system. […]
After maintaining constant agitation at 4° C. for 30 minutes, lysates were collected in microcentrifuge tubes and centrifuged at 12,000 rpm at 4° C. for 20 minutes. […] Protein concentration was determined using the Pierce® BCA protein assay kit. […] Western blot images are representative of at least 3 independent experiments, while quantification data represent mean±S.E.M. of n>3 experiments.

The subject of a further assay is PC-3 cells. Put plainly: XTT cell proliferation (cell viability) assay in PC-3 cells. The class given is cell-based. The note with it: Homo sapiens, mean±S.E.M., read-out: IC50 (anti-proliferative activity, XTT). The method, then: Cell Line and Culture Conditions • Human metastatic, androgen insensitive prostate cancer cells, PC-3, were obtained from ATCC (Manassas, Va., USA). Cells were grown in F-12K medium supplemented with 2 mM glutamine, 10% FBS, 100 U/mL penicillin, and 100 μg/mL streptomycin. PC-3 cells were maintained in a humidified atmosphere of 5% CO2 at 37° C. in T-75 flasks and were subcultured when confluent.
The anti-proliferative effect of carvacrol was assessed in PC-3 cells using the XTT cell proliferation assay. This assay is a colorimetric assay that is used to measure cell growth and drug sensitivity in tumor cell lines by measuring the internal environment of the proliferating cell, which is more reduced than that of non-proliferating cells. In this assay, the second generation tetrazolium dye, XTT (2,3-bis(2-methoxy-4-nitro-5-sulfophenyl)-5-[(phenylamino)-carbonyl]-2H tetrazolium hydroxide), is reduced to a soluble, brightly orange colored formazan derivative. To improve the sensitivity of XTT assay, PMS (N-methyl dibenzopyrazine methyl sulfate), an intermediate electron carrier is used. This color change is accomplished by breaking apart the positively charged quaternary tetrazole ring. An expansion in the number of viable cells results in an increase in the overall activity of mitochondrial dehydrogenases in the sample. […]
PC-3 cells at a density of 10^4 cells/well were seeded into flat-bottom, 96-well microtiter plates (100 μL/well) and allowed to attach and grow for 24 h. […] After incubation, an orange colored formazan product was formed and the absorbance was measured at 475 nm using BioTek microplate reader. […] Cell viability of the drug-treated cells was calculated as a fraction of solvent control and the anti-proliferative activity of carvacrol was expressed in terms of IC50 values. IC50 values were calculated using GraphPad Prism 4 (Graph Pad Software Inc., Calif., USA), and expressed as the means±S.E.M. of n≧3 experiments (each in triplicate).

Like-named read-outs stand apart in the source and are kept apart here.

`Cc1ccc(C(C)C)cc1O` [Carvacrol]: the “cytochrome c release (Western blot, densitometry vs solvent control)” value in assay [1] is on record as “dose-dependent increase in cytochrome c release”. Also, the IC50 in the assay on PC-3 cells (24 hr treatment) amounted to 2250 ± 79.8 µM; with PC-3 cells (48 hr treatment), 1400 ± 98.2 µM; with PC-3 cells (96 hr treatment) it was 1010 ± 63.5 µM.
